Patent US8299059B2, “Crystalline compound and a process for its preparation” (Eli Lilly and Company, priority 2009, dated 2012)

Assays:
Type in all cases: physicochemical
[1] = Determination of particle size distribution by laser diffraction; details: for x10 / x90: cumulative volume distribution (undersized); for x50: median particle size
Protocol: Laser diffraction particle size analysis is employed to determine the x10, x50 and x90 values. The procedure uses Fraunhofer laser diffraction theory to calculate the particle size distribution. The analysis is performed with a Malvern Mastersizer 2000 equipped with a Hydro 2000S wet module. A filtered (0.22 μm) solution composed of 0.35% (v/v) sorbitan monooleate (SPAN® 80) in hexanes and saturated with semagacestat is used as the dispersant. The parameters used in the analysis are as follows: sample refractive index—1.555, sample absorption—0.1, dispersant refractive index—1.37, result calculation model—General purpose, normal sensitivity, sample measurement time—12 seconds, background measurement time—12 seconds, and stirrer/pump speed—2700 rpm. A dry sample is added to the Hydro 2000S wet module with sonication on at 100%, until the obscuration is between 10 and 20%. The sample is sonicated for 12 s and stirred for a total of 2 min (including sonication) prior to the analysis. Two separate assays are typically run; the average values are reported.

[2] = Determination of particle flowability (Schulze shear cell tester); details: flow factor coefficient, pre-consolidation pressure 2000 Pa
Protocol: Particle flowability is characterized using a Schulze shear cell tester with a pre-consolidation pressure of 2000 Pa. The powder sample is contained in an annular shear cell. A vertically acting force is applied to the lid of the flow cell allowing an adjustable normal stress to be applied. The shear cell is slowly rotated and the torque necessary to prevent the cover from rotating is recorded. The measured shear stress that is recorded is the shear stress required for the powder to move or flow against itself. From a plot of the shear stress versus normal force, the flowability or FFC is determined

[3] = Determination of specific surface area (BET isotherm, nitrogen)
Protocol: Specific surface area is determined from BET isotherm measurements using nitrogen as the absorbed gas.

| Compound | x10 [1] [μm] | x90 [1] [μm] | x50 [1] [μm] | FFC [2] | SSA [3] [m^2/g] |
| --- | --- | --- | --- | --- | --- |
| CC(C)[C@H](O)C(=O)N[C@@H](C)C(=O)N[C@@H]1C(=O)N(C)CCc2ccccc21 [Example 1, Crystalline (2S)-2-hydroxy-3-methyl-N-[(1S)-1-methyl-2-oxo-2-[[(1S)-2,3,4,5-tetrahydro-3-methyl-2-oxo-1H-3-benzazepin-1-yl]amino]ethyl]-butanamide anhydrate Form II] | 14 | 128 | 59 | 3.8 | 0.4 |
| CC(C)[C@H](O)C(=O)N[C@@H](C)C(=O)N[C@@H]1C(=O)N(C)CCc2ccccc21 [Method 2, Crystalline (2S)-2-hydroxy-3-methyl-N-[(1S)-1-methyl-2-oxo-2-[[(1S)-2,3,4,5-tetrahydro-3-methyl-2-oxo-1H-3-benzazepin-1-yl]amino]ethyl]-butanamide anhydrate Form II] | 3.5 | 54 | 17 | 2.0 | 1.1 |
